Tested on: α7 integrin promoter
Assay: muscle cell-based assay: α7βgal+/− myoblasts/myotubes, LacZ reporter, β-galactosidase cleavage of FDG
Set-up: species or system mouse
Details: Myotubes; for Results in a α7+/− β-galactosidase assay, Myotubes, 0.5 uM: compound at 0.5 uM; for Results in a α7+/− β-galactosidase assay, Myotubes, 1 uM: compound at 1 uM; for Results in a α7+/− β-galactosidase assay, Myotubes, 5 uM: compound at 5 uM; for Results in a α7+/− β-galactosidase assay, Myotubes, 10 uM: compound at 10 uM; for Results in a α7+/− β-galactosidase assay, Myotubes, 20 uM: compound at 20 uM; for Results in a α7+/− β-galactosidase assay, Myotubes, 40 uM: compound at 40 uM
Outline: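 Fluorescein generated from FDG by β-galactosidase reports α7 integrin promoter activity in differentiated myoblasts from α7+/− LacZ knock-in pups. Screening hits then went to dose-response, western blotting and a myostatin counterscreen.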

| Structure (SMILES) | Results in a α7+/− β-galactosidase assay, Myotubes, 0.5 uM | Results in a α7+/− β-galactosidase assay, Myotubes, 1 uM | Results in a α7+/− β-galactosidase assay, Myotubes, 5 uM | Results in a α7+/− β-galactosidase assay, Myotubes, 10 uM | Results in a α7+/− β-galactosidase assay, Myotubes, 20 uM | Results in a α7+/− β-galactosidase assay, Myotubes, 40 uM |
| --- | --- | --- | --- | --- | --- | --- |
| COC(=O)c1cc(S(=O)(=O)NCC2CCN(Cc3ccc(Cl)cc3)CC2)cn1C [drawing 464] | −0.00414 | −0.05118 | −0.09401 | −0.08097 | −0.09607 | −0.07382 |
| COc1ccc(C(=O)Cn2nnc(-c3ccccc3NC(=O)c3ccco3)n2)cc1 [drawing 465] | 0.1086 | 0.1215 | −0.1502 | −0.3147 | −0.5196 | −0.8196 |
| N#Cc1nc(COc2ccccc2)oc1N1CCCC1 [drawing 466] | −0.1447 | −0.2423 | −0.3897 | −0.2892 | −0.5781 | −0.8948 |
| CCCc1nnc(SCC(=O)NC2CCCC2)n1CCOC [drawing 467] | −0.09246 | 0.01763 | −0.3088 | 0.4536 | −0.2024 | −0.4694 |
| Nc1cccc(/C=C/C(=O)O)c1 [drawing 468] | 0.04663 | −0.01629 | −0.2823 | −0.1292 | −0.1085 | −0.2156 |
| CCCC1C(c2cc(OC)c(OC)c(OC)c2)=Nc2c1c(=O)[nH]c(=O)n2Cc1ccccc1 (stereo not drawn) [drawing 469] | −0.09222 | −0.1313 | −0.484 | −0.34 | −0.2089 | −0.2856 |
| CC(C)(C)c1ccc(C(=O)OCC(=O)Nc2sc3c(c2C#N)CCC3)cc1 [drawing 470] | −0.03535 | −0.03363 | 0.4586 | −0.1998 | −0.05439 | −0.05938 |
| CCOc1cc(C)c(S(=O)(=O)N2CCCCC2)cc1C [drawing 471] | −0.1603 | −0.08287 | −0.1415 | −0.1282 | 0.01353 | −0.03791 |
| Cc1cc(OCC(=O)NC(C)C)ccc1Cl [drawing 472] | −0.02692 | −0.04637 | −0.3868 | −0.4196 | −0.2513 | −0.2531 |
| Cc1ccsc1CN(C)CC(=O)Cc1ccc([N+](=O)[O-])cc1Cl [drawing 473] | −0.05036 | −0.06852 | −0.2581 | −0.2695 | −0.1438 | −0.2052 |
| O=C1c2ccccc2C(=O)C1(CC(O)O)c1ccccc1 [drawing 474] | −0.08689 | 0.05823 | −0.2367 | −0.3763 | −0.3304 | −0.4389 |
| Cc1ccc(Cn2nnc3c(O)nc(C4CCCN(C(=O)c5ccco5)C4)nc32)cc1 (stereo not drawn) [drawing 475] | −0.1767 | −0.1614 | −0.2961 | −0.3051 | −0.225 | −0.2551 |

Source: patent US10028992B2, “Methods of treating muscular dystrophy” (BOARD OF REGENTS OF THE NEVADA SYSTEM OF HIGHER EDUCATION …, priority 2012, dated 2018)
